Measurements taken from PubChem BioAssay AID248 (DTP/NCI, 2004).
“And” between values parts separate entries of the source, which are not always exact repeats. Equal values may be shown once. Inconclusive results and toxic doses are left out. No stated cut-off is given here; in the data, active means T/C of 150% or more; inactive means T/C below 125%.

Tested on: L1210 leukemia ip in BDF1 mice, survival T/C
Assay: NCI In Vivo Anticancer Drug Screen. Data for tumor model L1210 Leukemia (intraperitoneal) in B6D2F1 (BDF1) mice
Settings: endpoint: mean survival time, higher = longer survival
How it was run: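 Each compound was tested against a transplantable tumor grown in mice. The endpoint was survival, with treated animals benchmarked against vehicle controls as a simple ratio.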

[1] = dose: 25.0 mg/kg/injection, schedule: Q01DX009 (ip), vehicle: Klucel (hydroxypropylcellulose) (HPC)
[2] = dose: 50.0 mg/kg/injection, schedule: Q01DX009 (ip), vehicle: Klucel (hydroxypropylcellulose) (HPC)
[3] = dose: 100.0 mg/kg/injection, schedule: Q01DX009 (ip), vehicle: Klucel (hydroxypropylcellulose) (HPC)
[4] = dose: 100.0 mg/kg/injection, schedule: Q01DX001 (ip), vehicle: Klucel (hydroxypropylcellulose) (HPC)
[5] = dose: 200.0 mg/kg/injection, schedule: Q01DX001 (ip), vehicle: Klucel (hydroxypropylcellulose) (HPC)
[6] = dose: 400.0 mg/kg/injection, schedule: Q01DX001 (ip), vehicle: Klucel (hydroxypropylcellulose) (HPC)
[7] = dose: 100.0 mg/kg/injection, schedule: Q01DX001 (ip), vehicle: saline
[8] = dose: 200.0 mg/kg/injection, schedule: Q01DX001 (ip), vehicle: saline
[9] = dose: 400.0 mg/kg/injection, schedule: Q01DX001 (ip), vehicle: saline
[10] = dose: 100.0 mg/kg/injection, schedule: Q04DX002 (ip), vehicle: Klucel (hydroxypropylcellulose) (HPC)
[11] = dose: 200.0 mg/kg/injection, schedule: Q01DX009 (ip), vehicle: Klucel (hydroxypropylcellulose) (HPC)
[12] = dose: 200.0 mg/kg/injection, schedule: Q04DX002 (ip), vehicle: Klucel (hydroxypropylcellulose) (HPC)
[13] = dose: 400.0 mg/kg/injection, schedule: Q01DX009 (ip), vehicle: Klucel (hydroxypropylcellulose) (HPC)
[14] = dose: 400.0 mg/kg/injection, schedule: Q04DX002 (ip), vehicle: Klucel (hydroxypropylcellulose) (HPC)
[15] = dose: 100.0 mg/kg/injection, schedule: Q04DX003 (ip), vehicle: saline with Tween-80
[16] = dose: 200.0 mg/kg/injection, schedule: Q04DX003 (ip), vehicle: saline with Tween-80
[17] = dose: 400.0 mg/kg/injection, schedule: Q04DX003 (ip), vehicle: saline with Tween-80

Measured: T/C

CC[N+](C)(CC)CCNC(c1ccc(OC)c(OC)c1)C(Cl)(Cl)Cl (stereo unspecified)
inactive: dose: 75.0 mg/kg/injection, schedule: Q01DX001 (ip), vehicle: saline 88 % of control

CCN(/C=C1\CCOC1=O)CC
inactive: dose: 100.0 mg/kg/injection, schedule: Q04DX002 (ip), vehicle: saline 101 % of control | dose: 200.0 mg/kg/injection, schedule: Q04DX002 (ip), vehicle: saline 97 % of control

CCCCOC(=O)c1ccc(NC(=O)Nc2cc([N+](=O)[O-])ccc2Cl)cc1
inactive: [1] 113 % of control | [2] 100 % of control | [3] 90 % of control

CCCCCCCCCCCSCCSCCSCCCCCCCCCCC
inactive: [4] 88 % of control | [5] 95 % of control | [6] 90 % of control

O=C(C1C(c2ccccc2)N1Cc1ccccc1)C1C(c2ccccc2)N1Cc1ccccc1 (stereo unspecified)
inactive: dose: 75.0 mg/kg/injection, schedule: Q01DX001 (ip), vehicle: Klucel (hydroxypropylcellulose) (HPC) 101 % of control | dose: 150.0 mg/kg/injection, schedule: Q01DX001 (ip), vehicle: Klucel (hydroxypropylcellulose) (HPC) 88 % of control | dose: 300.0 mg/kg/injection, schedule: Q01DX001 (ip), vehicle: Klucel (hydroxypropylcellulose) (HPC) 93 % of control

O=C1NC(c2ccccc2)C(=O)N1CCN(CCCl)CCCl (stereo unspecified)
inactive: dose: 3.12 mg/kg/injection, schedule: Q01DX009 (ip), vehicle: saline 102 % of control | dose: 3.12 mg/kg/injection, schedule: Q04DX003 (ip), vehicle: saline 98 % of control | dose: 6.25 mg/kg/injection, schedule: Q01DX009 (ip), vehicle: saline 97 % of control | dose: 6.25 mg/kg/injection, schedule: Q04DX003 (ip), vehicle: saline 106 % of control | dose: 12.5 mg/kg/injection, schedule: Q01DX009 (ip), vehicle: saline 100 % of control | dose: 12.5 mg/kg/injection, schedule: Q04DX003 (ip), vehicle: saline 103 % of control | dose: 25.0 mg/kg/injection, schedule: Q04DX003 (ip), vehicle: saline 115 % of control

Cc1ncc(CO)n1Cc1ccccc1
inactive: [4] 104 % of control | [5] 104 % of control | [6] 114 % of control

CCCSCSCCC
inactive: [7] 105 % of control | dose: 100.0 mg/kg/injection, schedule: Q01DX009 (ip), vehicle: saline 105 % of control | dose: 100.0 mg/kg/injection, schedule: Q04DX003 (ip), vehicle: saline 98 % of control | [8] 98 % of control | dose: 200.0 mg/kg/injection, schedule: Q01DX009 (ip), vehicle: saline 97 % of control | dose: 200.0 mg/kg/injection, schedule: Q04DX003 (ip), vehicle: saline 104 % of control | [9] 98 % of control | dose: 400.0 mg/kg/injection, schedule: Q01DX009 (ip), vehicle: saline 100 % of control | dose: 400.0 mg/kg/injection, schedule: Q04DX003 (ip), vehicle: saline 97 % of control

COc1ccccc1/C(C)=N\NC(N)=O
inactive: [7] 97 % of control | [8] 93 % of control | [9] 103 % of control

Cc1ccc(C(C)C)c(OC(=O)Nc2ccc(Cl)cc2)c1
inactive: [4] 95 % of control | [3] 96 % of control and 103 % of control | [10] 98 % of control and 102 % of control | dose: 100.0 mg/kg/injection, schedule: Q04DX003 (ip), vehicle: Klucel (hydroxypropylcellulose) (HPC) 100 % of control and 120 % of control | [5] 88 % of control | [11] 98 % of control and 100 % of control | [12] 102 % of control | dose: 200.0 mg/kg/injection, schedule: Q04DX003 (ip), vehicle: Klucel (hydroxypropylcellulose) (HPC) 104 % of control and 124 % of control | [6] 88 % of control | [13] 96 % of control and 91 % of control | [14] 94 % of control and 98 % of control | dose: 400.0 mg/kg/injection, schedule: Q04DX003 (ip), vehicle: Klucel (hydroxypropylcellulose) (HPC) 96 % of control

CCCCCN(CCCCC)CC(O)c1cc2c(c3ccccc13)CCCC2 (stereo unspecified)
inactive: [1] 87 % of control | [2] 93 % of control | [3] 90 % of control

Clc1ncnc2scnc12
inactive: dose: 50.0 mg/kg/injection, schedule: Q01DX001 (ip), vehicle: carboxymethylcellulose (CMC) 102 % of control | dose: 100.0 mg/kg/injection, schedule: Q01DX001 (ip), vehicle: carboxymethylcellulose (CMC) 91 % of control | dose: 200.0 mg/kg/injection, schedule: Q01DX001 (ip), vehicle: carboxymethylcellulose (CMC) 98 % of control

O=C(CCCc1ccc(N(CCCl)CCCl)cc1)Nc1ccc(F)cc1
inactive: dose: 4.0 mg/kg/injection, schedule: Q12HX018 (ip), vehicle: other 103 % of control | dose: 6.0 mg/kg/injection, schedule: Q12HX018 (ip), vehicle: other 106 % of control | dose: 8.0 mg/kg/injection, schedule: Q12HX018 (ip), vehicle: other 104 % of control

COc1ccc(-n2cnc3c(=O)[nH]c(N)nc32)cc1NC(=O)Nc1cccc(S(=O)(=O)F)c1
inactive: dose: 50.0 mg/kg/injection, schedule: Q01DX001 (ip), vehicle: saline with Tween-80 95 % of control | dose: 100.0 mg/kg/injection, schedule: Q01DX001 (ip), vehicle: saline with Tween-80 92 % of control | dose: 200.0 mg/kg/injection, schedule: Q01DX001 (ip), vehicle: saline with Tween-80 100 % of control

CCN(CC)CCSSCCN(CC)CC.[Cl][Mn][Cl]
inactive: [7] 103 % of control

C(=N\Nc1nnn(Cc2ccccc2)n1)/c1ccccc1
inactive: dose: 100.0 mg/kg/injection, schedule: Q01DX009 (ip), vehicle: saline with Tween-80 95 % of control | [15] 110 % of control | dose: 200.0 mg/kg/injection, schedule: Q01DX009 (ip), vehicle: saline with Tween-80 102 % of control | [16] 102 % of control | dose: 400.0 mg/kg/injection, schedule: Q01DX009 (ip), vehicle: saline with Tween-80 93 % of control | [17] 90 % of control

O=C(CCCCC(=O)N/N=C\c1ccccc1O)N/N=C\c1ccccc1O
inactive: [15] 87 % of control | [16] 89 % of control | [17] 87 % of control

O=C(Nc1ccccc1F)Oc1ccc(F)cc1
inactive: [4] 97 % of control | [3] 102 % of control and 91 % of control | [10] 101 % of control and 89 % of control | [5] 97 % of control | [11] 98 % of control and 109 % of control | [12] 96 % of control and 98 % of control | [6] 96 % of control | [13] 98 % of control and 107 % of control | [14] 101 % of control and 104 % of control

O=C(Nc1cccc(C2=NCC(O)CN2)c1)c1ccc(C(=O)Nc2cccc(C3=NCC(O)CN3)c2)c(Cl)c1 (stereo unspecified)
inactive: dose: 6.25 mg/kg/injection, schedule: Q01DX Z (ip), vehicle: water 95 % of control

O=C(NC(=S)Nc1ccc(Cl)cc1)c1ccccc1
inactive: [1] 95 % of control | [2] 93 % of control | [3] 93 % of control and 89 % of control
